Laboratory results reported in patent US6214859A, “Ethylamine derivatives” (Fujimoto Brothers Co., Ltd., priority 1997, dated 2001).

Tests used:
[1] = test system: dopamine release, striatum; test: Release of biogenic amines from brain tissue: dopamine, striatum; format: in vivo, Wistar rats
Method: (§1) The method described in Life Sci., 56, 611-620 (1995) was used. After Wistar rats were decapitated, appropriate brain samples, which were striatun, substantia nigra, tuberculum olfactorium, locus coeruleus and raphe, were removed quickly and soaked in oxygenated (95% O2 and 5% CO2) Krebs solution at 37° C. The composition of Krebs solution was as follows in […]: NaCl 111, KCl 4.7, CaCl2 2.5, MgSO4 1.64, NaHCO3 25, KH2 PO4 1.2, glucose 11, 50 mg/l ascorbic add and 20 mg/l EDTA-2 Na. The preparations, soaked in one organ bath, were as follows: 1) four pieces of striatum (each halved), 2) four pieces of substantia nigra, 3) four pieces of tuberculum olfactorium; 4) eight pieces of locus coeruleus; 5) eight pieces of raphe. After incubation of the appropriate tissue for 20 min, the Krebs solution was replaced, the tissue soaked for 20 min in Krebs solution dissolving the compounds of this invention and the amount of biogenic amine released during this period of time was estimate. The compounds of this invention and PPAP, control compound, were dissolved in saline and were administered subcutaneously before 30 min to removing brain sample. For measuring noradrenaline and dopamine, samples were purified on 60 mg alumina containing micro columns (BDH Chemicals Ltd.) according to the method described in J. Pharmacol. Exp. Ther., 138, 360-372 (1962) For measuring serotonin, samples were purified on 15 mg Sephadex G-10 micro columns (Pharmacia). Dopamine, noradrenaline and serotonin were determined by high performance liquid chromatography (Waters 746 data module) with electrochemical detection (Waters 460 electrochemical detector). Waters Resolve 5μ Spherical C18 3.9×150 mm column was used as separating column and triethylamine-phosphate buffer (pH 5.2), containing 200 mg/l octane sulfonate sodium and 18 mg/l EDTA-2 Na with 6% acetonitrile, was used as mobile phase. The release amount of appropriate amine was noted as nmol/g tissue released for 20 min. deference of means tested by Student's t-test and significant level was set at P<.05.

[2] = test system: dopamine release, tuberculum olfactorium; test: Release of biogenic amines from brain tissue: dopamine, tuberculum olfactorium; format: in vivo, Wistar rats
Method: as §1

[3] = test system: noradrenaline release, locus coeruleus; test: Release of biogenic amines from brain tissue: noradrenaline, locus coeruleus; format: in vivo, Wistar rats
Method: as §1

[4] = test system: rats reduced learning ability by tetrabenazine; test: Conditioned avoidance task in the shuttle box (tetrabenazine-treated rats); format: in vivo, rat; conditions: tetrabenazine 1 mg/kg s.c., significance and direction
Method: The method described in Life Sci., 58, 817-827 (1996) was used. The effects on conditioned avoidance reflex (CARs) was analyzed in the shuttle box using male and female rats (weighing 200-220 g) whose leaning abilities were reduced by treatment of tetrabenazine. The instrument was constructed, according to the device described in Psychopharmacologia 10, 1-5 (1966) by the Research Institute for Electrical Industry (Budapest, Hungary). The male and female rats (weighing 200-220 g) were trained to cross the berrier under the influence of a conditioned stimulus (CS) (light flash and buzzer sounds). […] And the performance which was not related to this condition was noted as an intersignal reaction (IR). The rats were trained with 100 trials per day for 5 days. One trial consisted of 15 sec intertrial interval. The saline solution of tetrabenazine was administered at a dose of 1 mg/kg subcutaneously before one hour prior to the test and then the solution of the compounds of this invention were administered at the doses of 1, 2, 2.5 and 5 mg/kg subcutaneously with the simultaneous administration of tetrabenazine. The nmbers of CARs, EFs and IRs were automatically counted and evaluated by multi-way analysis of variance (ANOVA).

[5] = test system: dopamine release, substantia nigra; test: Release of biogenic amines from brain tissue: dopamine, substantia nigra; format: in vivo, Wistar rats
Method: as §1

human platelet MAO-B = target: T1, human platelet MAO-B (Homo sapiens, UniProt P27338); test: biochemical; conditions: 10^-5 M; read-out: Inhibition rate of MAO-B
T1 construct: The suspension was used as enzyme for MAO activity assay in blood platelets; from tissue; host or cells: human blood platelets (frozen, thawed and sonicated platelet rich plasma)
T1 sequence (P27338 1-520): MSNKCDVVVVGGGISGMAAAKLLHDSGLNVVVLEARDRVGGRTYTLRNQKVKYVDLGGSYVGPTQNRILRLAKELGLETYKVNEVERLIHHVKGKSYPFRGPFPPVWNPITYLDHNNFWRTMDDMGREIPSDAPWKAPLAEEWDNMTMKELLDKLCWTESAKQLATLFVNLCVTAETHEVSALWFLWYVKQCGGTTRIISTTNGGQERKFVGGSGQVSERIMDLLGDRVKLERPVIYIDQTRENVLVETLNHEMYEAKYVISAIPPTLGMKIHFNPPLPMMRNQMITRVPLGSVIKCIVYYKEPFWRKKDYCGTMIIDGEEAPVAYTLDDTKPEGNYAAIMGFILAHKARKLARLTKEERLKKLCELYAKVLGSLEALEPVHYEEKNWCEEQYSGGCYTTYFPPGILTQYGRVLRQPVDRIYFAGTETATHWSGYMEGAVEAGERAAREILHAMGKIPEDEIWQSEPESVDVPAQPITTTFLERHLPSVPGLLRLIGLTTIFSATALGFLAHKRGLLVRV
Method: Human blood added with 3.8% citric acid was centrifuged at 950 rpm for 10 min and platelet rich plasma (PRP) was obtained. The residual blood cell was centrifuged at 3,000 rpm for 10 min and platelet poor plasma (PPP) was obtained. After blood platelets were measured from a part of PRP, PRP and PPP were frozen at -20° C. They were thawed and were sonicated to be dispersed and suspended when MAO activity was measured. The suspension was used as enzyme for MAO activity assay in blood platelets. In addition, almost all of MAO in blood platelets have been known to be B type.
MAO-B activity was determined according to the method described in Biochem. Pharmacol., 14, 1684-1685 (1965). […] The mixture was incubated at 37° C. for 5 min. After 80 μl of PRP or PPP was added to it, the mixture was incubated at 37° C. for 20 min. Thereafter, 120 μl of substrate (0.33 mg/ml kynuramine dihydrobromide) was added thereto. After incubation at 37° C. for 30 min, 800 μl of 10% trichloroacetic acid were added to stop the reaction and the solution was centrifuged at 3,000 rpm for 10 min. To 1 ml of the supernatant, 2 ml of 1 N NaOH was added and fluorescence of the solution was measured at Ex 312 nm and Em 380 nm. PRP was prepared to 250,000 cell/μl as amounts of blood platelets with […] phosphate buffer solution and 4-hydroxyquinoline was used as standard for measurement.

serotonin release, raphe = test: Release of biogenic amines from brain tissue: serotonin, raphe; format: in vivo, Wistar rats
Method: as §1

[6] = Toxicity screening using primary cultured hepatocyte (LDH release); format: cell-based, rat; conditions: rat, primary hepatocytes, 24 hr, control 0.5% saline or 0.5% DMSO, read-out: Percent control of LDH release
Method: The hepatocytes was prepared from rat liver by collagenase perfusion method and suspension containing 5×10^5 cells/ml were prepared. After cultivation for 24 hr, the suspension was exchanged to the William's Medium E (GIBCO BRL) containing 10 or 100 μM of the compounds of this invention. After cultivation for 24 hr, the activity of lactate dehydrogenase (LDH) released in the medium was measured.

Compound	Release of dopamine, striatum ([1]; 1.00 mg/kg s.c.)	Release of dopamine, tuberculum olfactorium ([2]; 1.00 mg/kg s.c.)	Release of noradrenaline, locus coeruleus ([3]; 1.00 mg/kg s.c.)	Condition Avoidance Reflex (CARs) ([4]; 1 mg/kg s.c.)	Condition Avoidance Reflex (CARs) ([4]; 5 mg/kg s.c.)	Escape Failures (EFs) ([4]; 5 mg/kg s.c.)	Release of dopamine, substantia nigra ([5]; 1.00 mg/kg s.c.)	inhibition at 10 µM (human platelet MAO-B)	Release of serotonin, raphe (serotonin release, raphe; 1.00 mg/kg s.c.)	Release of dopamine, striatum ([1]; 0.25 mg/kg s.c.)	Release of dopamine, tuberculum olfactorium ([2]; 0.25 mg/kg s.c.)	Release of noradrenaline, locus coeruleus ([3]; 0.25 mg/kg s.c.)	Release of dopamine, substantia nigra ([5]; 0.25 mg/kg s.c.)	Release of serotonin, raphe (serotonin release, raphe; 0.25 mg/kg s.c.)	activity at 24 h, 10 µM [6]	activity at 24 h, 100 µM [6]	other results
CCCC(Cc1ccc2ccccc2c1)NCC (stereo not shown) [Compound No. 6]	3.6 ± 0.12 nmol/g tissue, for 20 min	5.3 ± 0.19 nmol/g tissue, for 20 min	3.1 ± 0.05 nmol/g tissue, for 20 min	**** .Arrow-up bold.	**** .Arrow-up bold.	* .dwnarw.	6.7 ± 0.26 nmol/g tissue, for 20 min	24.5%	0.708 ± 0.07 nmol/g tissue, for 20 min	–	–	–	–	–	–	–	Escape Failures (EFs) ([4]; 1 mg/kg s.c.): * .dwnarw.
CCCNC(CCC)Cc1cccc2ccccc12 (stereo not shown) [Compound No. 5, 1-(1-Naphthyl)-2-propylaminopentane]	3.2 ± 0.14 nmol/g tissue, for 20 min	4.6 ± 0.13 nmol/g tissue, for 20 min	4.4 ± 0.50 nmol/g tissue, for 20 min	–	–	–	4.4 ± 0.16 nmol/g tissue, for 20 min	17.3%	0.571 ± 0.01 nmol/g tissue, for 20 min	4.3 ± 0.14 nmol/g tissue, for 20 min	6.0 ± 0.16 nmol/g tissue, for 20 min	3.9 ± 0.25 nmol/g tissue, for 20 min	5.6 ± 0.18 nmol/g tissue, for 20 min	0.425 ± 0.02 nmol/g tissue, for 20 min	111 ± 4.02%	195 ± 9.16%	–
CCCNC(CCC)Cc1cccc2c1OCO2.Cl (stereo not shown) [Compound No. 28, 1-(1,3-Benzodioxol-4-yl)-2-propylaminopentane Hydrochloride]	4.0 ± 0.18 nmol/g tissue, for 20 min	4.6 ± 0.22 nmol/g tissue, for 20 min	3.7 ± 0.10 nmol/g tissue, for 20 min	* .Arrow-up bold.	**** .Arrow-up bold.	*** .dwnarw.	5.4 ± 0.27 nmol/g tissue, for 20 min	22.2%	1.017 ± 0.06 nmol/g tissue, for 20 min	3.4 ± 0.16 nmol/g tissue, for 20 min	3.8 ± 0.22 nmol/g tissue, for 20 min	3.6 ± 0.35 nmol/g tissue, for 20 min	6.1 ± 0.35 nmol/g tissue, for 20 min	1.031 ± 0.03 nmol/g tissue, for 20 min	93 ± 6.92%	148 ± 6.55%	Release of dopamine, striatum ([1]; 5.00 mg/kg s.c.): 3.1 ± 0.13 nmol/g tissue, for 20 min; Release of dopamine, tuberculum olfactorium ([2]; 5.00 mg/kg s.c.): 3.1 ± 0.14 nmol/g tissue, for 20 min; Release of noradrenaline, locus coeruleus ([3]; 5.00 mg/kg s.c.): 3.9 ± 0.10 nmol/g tissue, for 20 min; Condition Avoidance Reflex (CARs) ([4]; 2.5 mg/kg s.c.): **** .Arrow-up bold.; Escape Failures (EFs) ([4]; 2.5 mg/kg s.c.): **** .dwnarw.; Release of dopamine, substantia nigra ([5]; 5.00 mg/kg s.c.): 4.9 ± 0.17 nmol/g tissue, for 20 min; Release of serotonin, raphe (serotonin release, raphe; 5.00 mg/kg s.c.): 1.436 ± 0.01 nmol/g tissue, for 20 min
